Experimental data taken from patent publication US20250042911A1, “NOVEL BENZOPYRAN DERIVATIVE AND USE THEREOF” (SPARK BIOPHARMA, INC, priority 2021, published 2025).
Counter-ions that a name gives are not always drawn.

test system: human M2 macrophages; assay: Inhibition of human M2 macrophage activity, hCCL22 in culture supernatant by ELISA; type: cell-based; settings: Macrophage, hCCL22 inhibitory activity at 10 μM, 72 hours
Description: To obtain human M2 macrophages, human monocytes (THP-1 monocyte, CD4 expression) were stabilized in a 96-well plate for 24 hours and then incubated in culture media containing 100 ng/mL phorbal 12-myristate-13-acetate (PMA; Sigma, P8139) for 24 hours to differentiate into M0 macrophages (macrophage-like phenotype). It was confirmed that differentiated M0 macrophages had reduced CD4 expression and expressed CD11b. M0 macrophages in the plate well were washed once with culture media and incubated in culture media containing 25 ng/mL hIL-4 (Peprotech, 200-04-50) and 25 ng/mL hIL-13 (Peprotech, 200-13-50) for 72 hours to differentiate into M2-like macrophages. Test compounds were diluted by concentration in M2 differentiation media and treated simultaneously during a differentiation period of 72 hours. The inhibitory effect of the test compounds on M2 macrophages was determined by measuring hCCL22 in the medium culture supernatant cultured for 72 hours using an ELISA assay (R&D system, DMD00). The results of the activity measurements are represented in Table 3 (EC50), Table 4 ([…] inhibitory activity at 5 μM) and Table 5 (hCCL22 inhibitory activity at 10 μM).

Structure (SMILES) | inhibition at 10 µM
CC(=O)c1ccc(-n2c(=O)n3n(c2=O)C2C(=CC3)C(C)(C)Oc3cc(NS(C)(=O)=O)ccc32)cc1 (stereo not drawn) [Example 5, N-(2-(4-acetylphenyl)-7,7-dimethyl-1,3-dioxo-2,3,5,12b-tetrahydro-1H,7H-chromeno[4,3-c][1,2,4]triazolo[1,2-a]pyridazin-10-yl)methanesulfonamide] | 42.3%
CC(=O)c1ccc(-n2c(=O)n3n(c2=O)C2C(=CC3)C(C)(C)Oc3cc(NC(C)(C)C)ccc32)cc1 (stereo not drawn) [Example 30, 2-(4-acetylphenyl)-10-(tert-butylamino)-7,7-dimethyl-5,12b-dihydro-1H,7H-chromeno[4,3-c][1,2,4]triazolo[1,2-a]pyridazine-1,3(2H)-dione] | 97.3%
CCN(CC)c1ccc2c(c1)OC(C)(C)C1=CCn3c(=O)n(-c4ccc(C(C)=O)cc4)c(=O)n3C12 (stereo not drawn) [Example 33, 2-(4-acetylphenyl)-10-(diethylamino)-7,7-dimethyl-5,12b-dihydro-1H,7H-chromeno[4,3-c][1,2,4]triazolo[1,2-a]pyridazine-1,3(2H)-dione] | 96.5%

same assay, conditions: hCCL22 secretion, THP-1 derived M2-like macrophages, compound present during 72 hours of differentiation

Structure (SMILES) | EC50
CC(=O)c1ccc(-n2c(=O)n3n(c2=O)C2C(=CC3)C(C)(C)Oc3cc(OC(=O)N4C(C)CNCC4C)ccc32)cc1 (stereo not drawn) [Example 100, 2-(4-acetylphenyl)-7,7-dimethyl-1,3-dioxo-2,3,5,12b-tetrahydro-1H,7H-chromeno[4,3-c][1,2,4]triazolo[1,2-a]pyridazin-10-yl 2,6-dimethylpiperazine-1-carboxylate hydrochloride] | 15.9 µM
CC(=O)c1ccc(-n2c(=O)n3n(c2=O)C2C(=CC3)C(C)(C)Oc3cc(OC(=O)N4CCN(C(=O)CN(C)C)CC4)ccc32)cc1 (stereo not drawn) [Example 99, 2-(4-acetylphenyl)-7,7-dimethyl-1,3-dioxo-2,3,5,12b-tetrahydro-1H,7H-chromeno[4,3-c][1,2,4]triazolo[1,2-a]pyridazin-10-yl 4-(dimethylglycyl)piperazine-1-carboxylate hydrochloride] | 32 µM
CC(=O)c1ccc(-n2c(=O)n3n(c2=O)C2C(=CC3)C(C)(C)Oc3cc(-c4nc(C)sc4C)ccc32)cc1 (stereo not drawn) [Example 39, 2-(4-acetylphenyl)-10-(2,5-dimethylthiazol-4-yl)-7,7-dimethyl-5,12b-dihydro-1H,7H-chromeno[4,3-c][1,2,4]triazolo[1,2-a]pyridazine-1,3(2H)-dione] | 73.1 µM
CN(C)C(=O)Oc1ccc2c(c1)OC(C)(C)C1=CCn3c(=O)n(-c4ccc(C(F)(F)F)cc4)c(=O)n3C12 (stereo not drawn) [Example 145, 7,7-dimethyl-1,3-dioxo-2-(4-(trifluoromethyl)phenyl)-2,3,5,12b-tetrahydro-1H,7H-chromeno[4,3-c][1,2,4]triazolo[1,2-a]pyridazin-10-yl dimethylcarbamate] | 77.3 µM
CNc1c(Cl)cc2c(c1Cl)OC(C)(C)C1=CCn3c(=O)n(-c4ccc(C(C)=O)cc4)c(=O)n3C12 (stereo not drawn) [Example 36, 2-(4-acetylphenyl)-9,11-dichloro-7,7-dimethyl-10-(methylamino)-5,12b-dihydro-1H,7H-chromeno[4,3-c][1,2,4]triazolo[1,2-a]pyridazine-1,3(2H)-dione] | 10.8 µM
CC(=O)c1ccc(-n2c(=O)n3n(c2=O)C2C(=CC3)C(C)(C)Oc3cc(NC(C)(C)C)ccc32)cc1 (stereo not drawn) [Example 30, 2-(4-acetylphenyl)-10-(tert-butylamino)-7,7-dimethyl-5,12b-dihydro-1H,7H-chromeno[4,3-c][1,2,4]triazolo[1,2-a]pyridazine-1,3(2H)-dione] | 4.3 µM
CCn1nc(C)c(-c2ccc3c(c2)OC(C)(C)C2=CCn4c(=O)n(-c5ccc(C(C)=O)cc5)c(=O)n4C23)c1C (stereo not drawn) [Example 40, 2-(4-acetylphenyl)-10-(1-ethyl-3,5-dimethyl-1H-pyrazol-4-yl)-7,7-dimethyl-5,12b-dihydro-1H,7H-chromeno[4,3-c][1,2,4]triazolo[1,2-a]pyridazine-1,3(2H)-dione] | 53.8 µM
CC(=O)c1ccc(-n2c(=O)n3n(c2=O)C2C(=CC3)C(C)(C)Oc3cc(OC(=O)N4CCNCC4(C)C)ccc32)cc1 (stereo not drawn) [Example 118, 2-(4-acetylphenyl)-7,7-dimethyl-1,3-dioxo-2,3,5,12b-tetrahydro-1H,7H-chromeno[4,3-c][1,2,4]triazolo[1,2-a]pyridazin-10-yl 2,2-dimethylpiperazine-1-carboxylate hydrochloride] | 5.3 µM
CCN(CC)c1ccc2c(c1)OC(C)(C)C1=CCn3c(=O)n(-c4ccc(C(C)=O)cc4)c(=O)n3C12 (stereo not drawn) [Example 33, 2-(4-acetylphenyl)-10-(diethylamino)-7,7-dimethyl-5,12b-dihydro-1H,7H-chromeno[4,3-c][1,2,4]triazolo[1,2-a]pyridazine-1,3(2H)-dione] | 5.8 µM
